For four compounds, Kd and AsfvPolX results are on record in PMC5330486 (PLoS Biology, 2017).

The structures appear in SMILES notation.

The target of the test is T1, AsfvPolX (ASFV DNA Polymerase X) (African swine fever virus BA71V, UniProt P42494).
T1 construct: gene Ba71V-97
The test can be described thus: biochemical. It is filed as binding. Conditions: for AsfvPolX: no DNA stated, buffer, metal and temperature not stated.

T1 sequence (P42494 whole entry, looked up): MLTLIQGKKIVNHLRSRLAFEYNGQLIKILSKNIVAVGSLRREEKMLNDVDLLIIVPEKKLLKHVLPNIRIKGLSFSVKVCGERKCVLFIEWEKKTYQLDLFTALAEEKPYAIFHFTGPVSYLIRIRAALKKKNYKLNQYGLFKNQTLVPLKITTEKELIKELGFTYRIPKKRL

Take `Nc1ccn([C@H]2C[C@H](O)[C@@H](COP(=O)(O)OP(=O)(O)OP(=O)(O)O)O2)c(=O)n1` [dCTP]: binding was characterised by a dissociation constant (Kd) of 6.85 ± 0.55 µM.
In turn, `Nc1ncnc2c1ncn2[C@H]1C[C@H](O)[C@@H](COP(=O)(O)OP(=O)(O)OP(=O)(O)O)O1` [dATP] showed an AsfvPolX of 0.66 ± 0.05 µM.
Take `Nc1nc2c(ncn2[C@H]2C[C@H](O)[C@@H](COP(=O)(O)OP(=O)(O)OP(=O)(O)O)O2)c(=O)[nH]1` [dGTP]: the AsfvPolX (structures are ternary complexes with gap(P) DNA and Mn2+) was 0.37+0.02 μM.
The compound `Cc1cn([C@H]2C[C@H](O)[C@@H](COP(=O)(O)OP(=O)(O)OP(=O)(O)O)O2)c(=O)[nH]c1=O` [dTTP] registered a Kd of 9.09 ± 0.89 µM.

A word on the Kd: it is a measure of binding affinity in units of concentration. A lower Kd goes with a tighter complex.
